# Data taken from paper PMC6874406 (Journal of photochemistry and photobiology. A, Chemistry, 2019).
# Read-outs that look alike come from different tables or passages of the source.
# Columns and labels:
# [1] = target: T1, human serum albumin (HSA) (Homo sapiens, UniProt P02768); assay: fluorescence titration; type: binding
# [2] = target: T1, human serum albumin (HSA); assay: fluorescence titration; type: binding; remark: listed apart in the source
# T1 sequence (P02768 25-609): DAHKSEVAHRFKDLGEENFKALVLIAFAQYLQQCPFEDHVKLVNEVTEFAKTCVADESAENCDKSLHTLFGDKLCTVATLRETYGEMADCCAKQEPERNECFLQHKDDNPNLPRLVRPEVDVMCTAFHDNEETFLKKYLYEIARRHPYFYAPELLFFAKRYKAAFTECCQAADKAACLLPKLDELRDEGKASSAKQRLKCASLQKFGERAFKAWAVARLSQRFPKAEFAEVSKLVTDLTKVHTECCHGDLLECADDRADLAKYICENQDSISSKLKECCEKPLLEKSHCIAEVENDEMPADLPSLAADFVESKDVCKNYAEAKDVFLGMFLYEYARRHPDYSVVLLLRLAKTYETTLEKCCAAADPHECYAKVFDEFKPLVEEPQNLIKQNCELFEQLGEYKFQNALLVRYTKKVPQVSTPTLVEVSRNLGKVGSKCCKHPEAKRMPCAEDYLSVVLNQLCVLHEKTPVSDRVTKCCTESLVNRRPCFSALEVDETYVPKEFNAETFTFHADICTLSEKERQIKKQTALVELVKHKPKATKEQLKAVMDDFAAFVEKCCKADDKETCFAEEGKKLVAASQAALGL
SMILES,Kd [1],Kd [2]
"CC1(C)OC(=C(C#N)C#N)C(C#N)=C1/C=C/c1ccc(O)cc1 [compound 2, fluorophore 2]",5.26 µM,–
"COc1cc(/C=C/C2=C(C#N)C(=C(C#N)C#N)OC2(C)C)cc(OC)c1O [compound 1, (E)-2-(3-cyano-4-(4-hydroxy-3,5-dimethoxystyryl)-5,5-dimethylfuran-2(5H)-ylidene)malononitrile]",–,6.67 µM
